{
  "source": "patent US20200289434A1",
  "about": "“RAPIDLY IMPROVING ENDOTHELIAL FUNCTION, REDUCING ARTERIAL STIFFNESS AND REVERSING CALCIFICATION OF BLOOD VESSELS BY ADMINISTERING VITAMIN K” (KAYDENCE PHARMA AS, priority 2019, published 2020)",
  "key": {"ApoE/LDLR−/− mice [1]": {"system": "ApoE/LDLR−/− mice", "assay": "Example 2: nitrite and nitrate concentration in plasma (ENO-20)", "type": "in vivo", "conditions": "two months", "procedure": "Nitrite (NO2−) and nitrate (NO3−) concentration in plasma—HPLC-based ENO-20\nBlood samples were collected from heart into test tubes containing additional anticoagulant and centrifuged at 1000 g for 10 min at 4° C. The samples were used for HPLC measurement of nitrate (NO3^−) and nitrite (NO2^−) concentrations in plasma by an ENO-20 NOx Analyzer."}, "matrix gla protein (MGP)": {"system": "matrix gla protein (MGP)", "assay": "Clinical study: blood analysis of matrix gla protein carboxylation", "type": "in vivo, human", "conditions": "kidney transplant patients, 360 ug/day, 8 weeks", "procedure": "Participants were enrolled in a clinical trial in which the effects of vitamin K2 were determined for patients who had recently undergone a kidney transplant. At the beginning of the study, patients were subjected to a non-invasive pulse wave velocity measurement to measure arterial stiffness/flexibility, as well as blood analysis. The study participants were then instructed to receive a specific daily dose of MenaQ7 vitamin K2 menaquinone-7 (360 ug/day) for a total of 8 weeks. At the end of 8 weeks, patients were again examined with a follow-up examination, a non-invasive pulse wave velocity measurement and blood analysis and drug treatment was discontinued.\nAs part of the blood analysis, carboxylated matrix gla protein (MGP) was measured as a direct measure of vitamin K2 activity. The carboxylated MGP inhibits calcification of blood vessels and Vitamin K2 stimulates carboxylation of MGP."}, "[2]": {"conditions": "mouse, in vivo"}, "ApoE/LDLR−/− mice [3]": {"system": "ApoE/LDLR−/− mice", "assay": "Example 3 second part: nitrite and nitrate concentration in plasma", "type": "in vivo", "conditions": "eight weeks"}, "[4]": {"system": "thrombin generation in platelet-poor mice plasma", "assay": "Example 3 second part: thrombin generation by calibrated automated thrombogram (CAT)", "type": "in vivo", "conditions": "eight weeks, either dose", "procedure": "Thrombin generation was measured in platelet-poor mice plasma using calibrated automated thrombography (CAT) technique as described in Hemker H C, Giesen P, Al Dieri R, Regnault V, de Smedt E, Wagenvoord R, et al. Calibrated automated thrombin generation measurement in clotting plasma. Pathophysiol Haemost Thromb 2003; 33:4-15. doi:71636. Thrombin generation was activated by mixing 21 μL of diluted plasma (1:1 with BSA5 buffer) with 7 pIL of fluorogenic substrate (Z-Gly-Gly-Arg-AMC, 16.6 mM) and 14 μL of trigger solution containing phospholipids, tissue factor and CaCl2) (4 μM, […] and 16.6 mM, respectively). In the calibration wells, the 14 μL of reagents were replaced with calibrator (102 nM). Immediately after the activation, 5 μL of the mixture was pipetted on paper disks in a flat bottom 96-well polystyrene plate and covered with 40 μL of mineral oil. Fluorescent signals were measured using the Fluoroskan Ascent software (Thermo Labsystems, Helsinki, Finland) and transformed into thrombin concentration as described in Hemker H C, Kremers R. Data management in Thrombin Generation. Thromb Res 2013; 131:3-11. doi:10.1016/j.thromres.2012.10.011. The parameters analyzed included endogenous thrombin potential (ETP), peak thrombin concentration (peak), and lag time."}, "[5]": {"system": "endothelial nitric oxide synthase (eNOS)-dependent nitric oxide (NO) production", "assay": "Example 3: endothelial NO production in ex vivo aorta by EPR", "conditions": "0.05 mg/kg b.w./day, vs untreated age-matched mice", "description": "For measurements of endothelial nitric oxide synthase (eNOS)-dependent nitric oxide (NO) production, EPR spin-trapping with diethyldithiocarbamic acid sodium salt (DETC) was used ex vivo, as described in Przyborowski K, Proniewski B, Czarny J, Smeda M, Sitek B, Zakrzewska A, et al. Vascular Nitric Oxide-Superoxide Balance and Thrombus Formation after Acute Exercise. Med Sci Sport Exerc 2018:1. doi:10.1249/MSS.0000000000001589, with minor modifications. Isolated aorta cleared from surrounding tissue was opened longitudinally and preincubated with 10 μM L-NIL (N6-(1-Iminoethyl)-lysine, hydrochloride) in Krebs-HEPES buffer for 30 minutes at 37° C. in a well of a 48-well plate. Next, 250 μL of Fe(DETC)2 colloid was added and aorta was stimulated with calcium ionophore A23187 (the final concentration was 1 μM) and subsequently, incubated for 90 minutes at 37° C. Finally, aorta was weighed and frozen in liquid nitrogen (suspended in fresh buffer) into the middle of a 400 μL column of Krebs-Hepes buffer and stored at −80° C. until measured. EPR spectra were obtained using an X-band EPR spectrometer (EMX Plus, Bruker, Germany), equipped with a rectangular resonator cavity H102. Signals were quantified by measuring the total amplitude of the NO—Fe(DETC)2 after correction of baseline. The quantitative results of NO production assessed by EPR were expressed in AU/mg of tissue."}, "[6]": {"system": "macrophages in BCA atherosclerotic plaque", "assay": "Example 3 second part: immunohistochemical detection of macrophages (Mac-3) in atherosclerotic plaque in BCA", "type": "in vivo, mice", "conditions": "high dose (10 mg/kg b.w./day)", "procedure": "For detection of macrophages in BCA, atherosclerotic plaque immunohistochemical staining was performed. After heat-induce epitope retrieval, with 10 mM sodium citrate buffer (pH 6), deparaffinised sections were blocked with 5% normal goat serum and 1% hydrogen peroxide. […] Next, sections were treated with biotinylated secondary antibody, followed by horseradish peroxidase-conjugated streptavidin. 3,3′-diaminobenzidine (DAB) as a chromogen was used for visualization of antibody-antigen interaction. Sections were counterstained with hematoxylin. Intensity of Mac-3 staining was estimated manually considering quantity and intensity of positive reactions. Final results are shown as a mean from two independent analysis."}, "ApoE/LDLR−/− mice [7]": {"system": "ApoE/LDLR−/− mice", "assay": "Example 2: histological assessment of plaque size, composition and vessel wall area in BCA", "type": "in vivo", "conditions": "two months", "description": "Plaque size and composition as well as vessel wall area (VWA) in BCA-Histological assessment, cross-section method, BCA cross-sections: total 13000 slides, Photographed: 1214 slides\nFor the determination of atherosclerotic plaque area and composition BCA was dissected, fixed in 4% buffered formalin and embedded in paraffin. 5 μm-thick serial sections of BCA were collected from proximal, middle and distal parts of artery. Originally developed staining with Unna's orcein combined with Martius, Scarlet and Blue trichrome (OMSB), was applied on every tenth section (50 μm interval between each section) for visualization of collagen, elastin, fibrin, red blood cells and vascular smooth muscle cells within atherosclerotic plaque. The areas of particular components of atherosclerotic plaque as well as artery lumen and wall were determined after Columbus-based software processing (FIG. 1B) using a previously developed algorithm [Gajda M, Jasztal A, Banasik T, Jasek-Gajda E, Chlopicki S. Combined orcein and martius scarlet blue (OMSB) staining for qualitative and quantitative analyses of atherosclerotic plaques in brachiocephalic arteries in apoE/LDLR−/− mice. Histochem Cell Biol 2017. doi:10.1007/s00418-017-1538-81."}},
  "data": [
    {"smiles": "CC(C)=CCC/C(C)=C/CC/C(C)=C/CC/C(C)=C/CC/C(C)=C/CC/C(C)=C/CC/C(C)=C/CC1=C(C)C(=O)c2ccccc2C1=O", "note": "[MK-7, menaquinone-7]", "values": [
      {"measurement": "concentration of NO3− in plasma", "setting": "ApoE/LDLR−/− mice [1]; 0.03 or 10 mg/kg b.w./day", "result": "did not change significantly"},
      {"measurement": "increase in NO2− concentration in plasma", "setting": "ApoE/LDLR−/− mice [1]; high dose 10 mg/kg b.w./day", "result": "~42", "unit": "%"},
      {"measurement": "increase in NO2− concentration in plasma", "setting": "ApoE/LDLR−/− mice [1]; low dose 0.03 mg/kg b.w./day", "result": "about 58%"},
      {"measurement": "mean reduction of levels of uncarboxylated MGP", "setting": "matrix gla protein (MGP)", "result": 55, "unit": "%"},
      {"measurement": "lipid profile, liver enzymes concentration, blood cell count", "setting": "[2]", "result": "did not affect"},
      {"measurement": "concentration of NO3− in plasma", "setting": "ApoE/LDLR−/− mice [3]; 0.03 or 10 mg/kg b.w./day", "result": "did not change significantly"},
      {"measurement": "increase in NO2− concentration in plasma", "setting": "ApoE/LDLR−/− mice [3]; high dose 10 mg/kg b.w./day", "result": "~42", "unit": "%"},
      {"measurement": "increase in NO2− concentration in plasma", "setting": "ApoE/LDLR−/− mice [3]; low dose 0.03 mg/kg b.w./day", "result": "about 58%"},
      {"measurement": "thrombin generation", "setting": "[4]", "result": "did not affect"},
      {"measurement": "nitric oxide production in ex vivo aorta by EPR", "setting": "[5]", "result": "increased"},
      {"measurement": "intensity of MAC-3 staining", "setting": "[6]", "result": "139±29"},
      {"measurement": "effect on plaque size", "setting": "ApoE/LDLR−/− mice [7]; either low or high dose", "result": "did not result in a beneficial effect"},
      {"measurement": "plaque and lumen area expressed as percent of IWA", "setting": "ApoE/LDLR−/− mice [7]; either low or high dose", "result": "did not change"},
      {"measurement": "internal wall area (IWA)", "setting": "ApoE/LDLR−/− mice [7]; lower dose, not visible for entire vessel", "result": "decreased only in the middle part of the vessel"},
      {"measurement": "decrease in lipid core expressed as percent of plaque", "setting": "ApoE/LDLR−/− mice [7]; similarly after low and high dose", "result": "about 17%"},
      {"measurement": "decrease in vessel wall area (VWA) of BCA", "setting": "ApoE/LDLR−/− mice [7]; similarly for low (0.03) and high (10 mg/kg b.w./day) dose", "result": "about 5%"},
      {"measurement": "content of collagen in plaque", "setting": "ApoE/LDLR−/− mice [7]; treated vs untreated groups", "result": "lack of differences"}
    ]}
  ]
}
